Laboratory results reported in PMC3198815 (PLoS ONE, 2011).

Molecular target: T1, xoFabV (Xanthomonas oryzae, UniProt Q2P9J6)
T1 construct: gene fabV
Conditions: weak binding, data not shown; no electron density in co-crystals

T1 sequence (Q2P9J6 whole entry, looked up): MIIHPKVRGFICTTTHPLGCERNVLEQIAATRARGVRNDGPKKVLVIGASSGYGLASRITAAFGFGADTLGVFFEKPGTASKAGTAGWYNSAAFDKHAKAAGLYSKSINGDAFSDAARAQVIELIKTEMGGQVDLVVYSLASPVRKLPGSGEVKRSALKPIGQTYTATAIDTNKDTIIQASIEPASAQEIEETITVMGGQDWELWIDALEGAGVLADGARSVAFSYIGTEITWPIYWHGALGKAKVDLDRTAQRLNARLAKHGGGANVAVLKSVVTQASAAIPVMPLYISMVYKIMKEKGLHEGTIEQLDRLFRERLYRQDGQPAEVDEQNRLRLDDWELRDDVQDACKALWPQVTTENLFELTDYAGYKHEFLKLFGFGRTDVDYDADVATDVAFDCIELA

NC(=O)c1ccc[n+]([C@@H]2O[C@H](COP(=O)(O)OP(=O)(O)OC[C@H]3O[C@@H](n4cnc5c(N)ncnc54)[C@H](O)[C@@H]3O)[C@@H](O)[C@H]2O)c1 [NAD^+]
isothermal titration calorimetry: NAD^+ binds weakly to xoFabV according to isothermal titration calorimetry assay (data not shown)
